# Experimental data taken from patent US9730894B2, “Stabilized HME composition with small drug particles” (BOARD OF REGENTS, THE UNIVERSITY OF TEXAS SYSTEM, priority 2004, dated 2017).
# Columns and labels:
# [1] = Dissolution test, USP 27 Type II paddle apparatus; assay type: physicochemical; conditions: 900 ml 0.1 N HCl, 37° C., 50 rpm, equivalent to 10 mg active
# Protocol: The dissolution media was 900 ml of 0.1 N HCl, and was de-aerated with helium for approximately 15 minutes before each dissolution test. In all cases where not otherwise specified, the equivalent to 10 mg of the active ingredient was added to each dissolution vessel.
# [2] = Solubilization of ITZ by the carrier during hot-melt extrusion at 100° C. (DSC, SEM); conditions: extruded at 100° C., confirmed by SEM and DSC
# Protocol: A Randcastle Microtruder RCP-0750 hot-melt extruder equipped with a 6 mm round die was operated at 15 RPM, 0.2-0.3 Drive Amps with an Extrusion Temperature of 100° C. to prepare the composition. All powders were blended in a v-shell blender prior to extrusion. Temperature zones were set as follows: zone 1: 90° C., zone 2: 95° C., zone 3: 100° C., die temperature 100° C. The powder blend was placed in a hopper that is located at the head of a vertical screw such that the material is flood fed by gravity. The residence time of the material in the extruder was approximately three minutes. The extrudate was sheared into approximately one foot sections after exiting the die and placed on an aluminum sheets and allowed to cool at ambient conditions.
# The fine drug-containing particles and compositions containing them were analyzed by scanning electron microscopy using a Hitachi S-4500 scanning electron microscope. Samples were coated with Au/Pd and an accelerating voltage of 5 kV was used.
# Changes in the degree of crystallization of the fine drug-containing particles, either neat or dispersed within a hot-melt extruded composition, were determined and quantified by differential scanning calorimetry. A TA Instruments Model 2920 calorimeter was used to conduct the analyses.
structure (smiles),measurement,setting,value
"CCC(C)n1ncn(-c2ccc(N3CCN(c4ccc(OCC5COC(Cn6cncn6)(c6ccc(Cl)cc6Cl)O5)cc4)CC3)cc2)c1=O (centres unmarked) [bulk ITZ, itraconazole]",ITZ drug release (dissolved) in 10 minutes (FIG. 12),[1],less than 1%
same,Solubility of itraconazole in PEO when extruded,[2],substantially insoluble
